Reference: patent US20040253259A1, “Biological compositions and methods for treatment of kidney cancer” (priority 2003, published 2004)

What was measured:
Type in all cases: in vivo
[1] = test system: complex cancer cells of kidney; test: Syrian hamster model of human kidney cancer, tumor growth (Example 6); conditions: tumor-bearing hamsters, 30 consecutive days of treatment, sacrificed on 31st day from tumor inoculation
From the text: The following example illustrates the benefit of a biological composition of the invention in a Syrian hamster model of human kidney cancer. The growth of the tumor in the hamsters was studied. Detailed description of the use of Syrian hamster to study kidney cancer can be found in, e.g., Liehr et al., 1991, Carcinogenesis 12:385-9, which is incorporated herein by reference in its entirety.
(§1) Complex cancer cells of kidney closely resembles the human kidney cancer pathology. See e.g., Modern Clinical Experimental Protocols, People's Republic of China Health Publishing House, 1997.
(§2) The biological composition comprising 10^8 cells per ml of activated and conditioned yeast cells of the strain Saccharomyces carlsbergensis Hansen strain AS2.189 was prepared by the methods described in Section 5.1 and subsections therein.
The animals used to generate the kidney cancer cells for the experiments were Syrian hamsters (obtainable from the Institute of Laboratory Animal Sciences, Chinese Academy of Medical Sciences, Beijing, China), an equal number of male and female, 5 to 6 months old, having an average body weight of 150 to 180 gram. […]
The hamsters received the biological compositions, untreated yeast cells, FUDR or saline on the same day as the tumor cells were transplanted. […] The weight of the hamsters and the weight of the tumor were determined by standard techniques.

[2] = test system: complex cancer cells of kidney; test: Syrian hamster model of human kidney cancer, survival time over 6 months (Example 7); conditions: for Number of live animals remaining in the groups after 30 days of treatment: 30 per group
Procedure: The following example illustrates the benefit of a biological composition of the invention in a Syrian hamster model of human kidney cancer. The survival time of hamsters after tumor injection and treatment was studied.
as §2
The animals were prepared in a similar manner as described in Section 6.1.
The hamsters injected with tumor cells were immediately divided into 4 experimental groups of ten hamsters per group and one control group. The four experimental groups were triplicated (i.e., using a total of 120 hamsters in the experimental groups). In group 2AY, the hamsters received 0.5 ml of the biological composition once per day. In group 2NY, the hamsters received 0.5 ml of the untreated yeast cells once per day. In group 2FUDR, the hamsters were injected subcutaneously with 0.6 mg of fluoruridine (FUDR) per kg body weight per day. In group 2CK1, the hamsters received 0.5 ml of physiological saline once per day.
(§3) The hamsters received the biological compositions, untreated yeast cells, FUDR or saline on the same day as the tumor cells were transplanted. The hamsters in group 2CK2 also started receiving saline on the same day as the other four groups. The biological compositions, untreated yeast cells and saline were administered orally by a feeding tube and the FUDR by subcutaneous injection for 30 consecutive days. The hamsters were observed over 6 months from the day of tumor inoculation and survival was recorded. The weight of the hamsters and the weight of the tumor were determined by standard techniques.

[3] = test system: complex cancer cells of kidney; test: Wistar rat model of human kidney cancer, tumor growth (Example 8); conditions: tumor-bearing rats, 30 consecutive days of treatment, sacrificed on 31st day from tumor inoculation
From the text: (§4) The following example illustrates the benefit of a biological composition of the invention in a Wistar rat model of human kidney cancer. The growth of the tumor in the rats was studied.
as §1, §2
The animals used to generate the kidney cancer cells for the experiments were Wistar rats (obtainable from the Chinese Academy of Military Medical Sciences, Beijing, China) having an average body weight of about 180 to 200 gram. The complex cancer cells of kidney (obtainable from the Shanghai Medical University, Shanghai, China) were generated from a Wistar rat with kidney cancer that was induced by subcutaneous injection of bismaleimidohexane (BHM). […]
The rats received the biological compositions, untreated yeast cells, VCR or saline on the same day as the tumor cells were transplanted. […] The weight of the rats and the weight of the tumor were determined by standard techniques.

[4] = test system: complex cancer cells of kidney; test: Wistar rat model of human kidney cancer, survival over 6 months (Example 9); conditions: for Number of live animals remaining in the groups after 30 days of treatment: 30 per group
Procedure: as §4, §2
The animals were prepared in a similar manner as described in Section 8.1.
The rats injected with tumor cells were kept for 5 days and then were divided into 4 experimental groups of ten rats per group and one control group. The four experimental groups were triplicated (i.e., using a total of 120 rats in the experimental groups). In group 2AY, the rats received 0.8 ml of the biological composition once per day. In group 2NY, the rats received 0.8 ml of the untreated yeast cells once per day. In group 2VCR, the rats were injected intravenously with 3 mg of […] (VCR) per kg body weight per day. In group 2CK1, the rats received 0.8 ml of physiological saline once per day.
as §3, with “rats” for “hamsters”, “VCR” for “FUDR”, “intravenous” for “subcutaneous”

[5] = surviving hamsters, observed over 6 months
[6] = surviving rats, observed over 6 months

## O=c1[nH]c(=O)n([C@H]2C[C@H](O)[C@@H](CO)O2)cc1F [FUDR, fluoruridine]
[1]
  mean weight of hamsters and standard deviation: 116.7 ± 4.9 g
  mean weight of tumor nodules and standard deviation: 2.7 ± 1.2 mg
[2]; hamsters, 0 month after cessation of treatment
  Number of live animals remaining in the groups after 30 days of treatment: 30
[2]; hamsters, 1 month after cessation of treatment
  Number of live animals remaining in the groups after 30 days of treatment: 27
[2]; hamsters, 2 months after cessation of treatment
  Number of live animals remaining in the groups after 30 days of treatment: 11
[2]; hamsters, 3 months after cessation of treatment
  Number of live animals remaining in the groups after 30 days of treatment: 5
[2]; hamsters, 4 months after cessation of treatment
  Number of live animals remaining in the groups after 30 days of treatment: 0
[2]; hamsters, 5 months after cessation of treatment
  Number of live animals remaining in the groups after 30 days of treatment: 0
[2]; hamsters, 6 months after cessation of treatment
  Number of live animals remaining in the groups after 30 days of treatment: 0
[2]; hamsters, observed over 6 months
  survival outcome during the experiment: all died
[2]; [5]
  mean weight of hamsters and standard deviation: all animals dead
  mean weight of tumor nodules and standard deviation: all animals dead

## CC[C@]1(O)C[C@@H]2CN(CCc3c([nH]c4ccccc34)[C@@](C(=O)OC)(c3cc4c(cc3OC)N(C)[C@H]3[C@@](O)(C(=O)OC)[C@H](OC(C)=O)[C@]5(CC)C=CCN6CC[C@]43[C@@H]65)C2)C1 [VCR, vinblastine]
[3]
  mean weight of rats and standard deviation: 189.6 ± 2.5 g
  mean weight of tumor nodules and standard deviation: 3.7 ± 1.9 g
[4]; rats, 0 month after cessation of treatment
  Number of live animals remaining in the groups after 30 days of treatment: 30
[4]; rats, 1 month after cessation of treatment
  Number of live animals remaining in the groups after 30 days of treatment: 30
[4]; rats, 2 months after cessation of treatment
  Number of live animals remaining in the groups after 30 days of treatment: 30
[4]; rats, 3 months after cessation of treatment
  Number of live animals remaining in the groups after 30 days of treatment: 22
[4]; rats, 4 months after cessation of treatment
  Number of live animals remaining in the groups after 30 days of treatment: 13
[4]; rats, 5 months after cessation of treatment
  Number of live animals remaining in the groups after 30 days of treatment: 0
[4]; rats, 6 months after cessation of treatment
  Number of live animals remaining in the groups after 30 days of treatment: 0
[4]; rats, observed over 6 months
  survival outcome during the experiment: all died
[4]; [6]
  mean weight of rats and standard deviation: all animals dead
  mean weight of tumor nodules and standard deviation: all animals dead
